# In US10703760B2, “Morphic forms of marizomib and uses thereof” (Celgene International II Sàrl, priority 2016, dated 2020):
# How the values were obtained:
# Format in all cases: physicochemical
# [1] = Thermogravimetric analysis (TGA)
# Method: TGA data were collected on a TA Instruments Q500 TGA, equipped with a 16-position auto-sampler. The instrument was temperature calibrated using certified Alumel™ and Nickel. Typically 5-10 mg of each sample was loaded onto a pre-tared aluminum DSC pan and heated at 10° C./min from ambient temperature to 350° C. A nitrogen purge at 60 ml/min was maintained over the sample.
# TG analyses were performed using a TA Instruments Q5000 IR thermogravimetric analyzer. Temperature calibration was performed using nickel and Alumel™. Each sample was placed in an aluminum pan. The sample was hermetically sealed, the lid pierced, then inserted into the TG furnace. The furnace was heated under nitrogen.
# [2] = Variable temperature XRPD; conditions: 25° C. to 160° C.; listed as morphic Form I
# Method: Samples run under non-ambient conditions were mounted on a silicon wafer with heat-conducting compound. The sample was then heated to the appropriate temperature at 20° C./min and subsequently held isothermally for 1 minute before data collection was initiated.
# [3] = Cocrystal screen of marizomib
smiles,measurement,setting,value
C[C@@]12OC(=O)[C@]1([C@@H](O)[C@@H]1C=CCCC1)NC(=O)[C@@H]2CCCl [marizomib],weight loss (TGA),"[1]; solids from 2-pyrrolidone (1:1) cocrystal experiment, from 27.1° C. to 92.0° C.",5.0%
same,weight loss (TGA),"[1]; solids from Melamine (1:1) cocrystal experiment, from 30.2° C. to 104.0° C.",10.3%
same,weight loss (TGA),"[1]; solids from Melamine (1:1) cocrystal experiment, from 30.2° C. to 146.0° C.",C. 21.1%
same,Morphic form on heating (variable temperature XRPD),[2],stable even at elevated temperatures
same,Cocrystal formation,"[3]; about 117 experiments, 46 coformers/counterions",cocrystal formation did not occur
same,XRPD Results,"[3]; coformer (2-hydroxypropyl)-β-cyclodextrin (1:1), MeOH/acetone, slurry 50° C. 2 days, supernatant decanted, SE, RT",MRZ
same,XRPD Results,"[3]; coformer (2-hydroxypropyl)-β-cyclodextrin (2:1), H2O/ACN, slurry 50° C. 2 days, slurry RT 6 days, SE, RT",MRZ
same,XRPD Results,"[3]; coformer Acetic acid (1:2), acetone, stir, RT, 5 days, cool 2-8° C., 3 days, SE, RT",MRZ
same,XRPD Results,"[3]; coformer Acetic acid (large excess), slurry, RT",MRZ
same,XRPD Results,"[3]; coformer Adenine (1:1), EtOH, slurry, RT, 5 days",MRZ
same,XRPD Results,"[3]; coformer Benzoic acid (1:5), MEK:MIBK (20:80), slurry, RT, 7 days",MRZ
same,XRPD Results,"[3]; coformer Benzoic acid (2:1), EtOAc, SE, RT",MRZ
same,XRPD Results,"[3]; coformer Caffeine (1:3), DMF:anisole (25:75), slurry, RT, 6 days",Caffeine
same,XRPD Results,"[3]; coformer DL-malic acid (1:3), dioxane, slurry 60° C. O/N, stir RT 1 day, FE, RT",MRZ
same,XRPD Results,"[3]; coformer Gentisic acid (1:1), t-BuOH, slurry, 50° C., 2 days",MRZ
same,XRPD Results,"[3]; coformer Gentisic acid (1:5), MEK:IPA (20:80), slurry, RT, 6 days",MRZ
same,XRPD Results,"[3]; coformer Gentisic acid (2:1), ACN, FC, 60° C. to RT",MRZ
same,XRPD Results,"[3]; coformer Glutaric acid (1:3), EtOH, slurry, RT, 6 days",MRZ
same,XRPD Results,"[3]; coformer Glycolic acid (1:2), acetone, SE, RT",MRZ
same,XRPD Results,"[3]; coformer Hydantoin (1:1), 2:1 dioxane:H2O, slurry, RT",MRZ
same,XRPD Results,"[3]; coformer Hydantoin (1:3), H2O/ACN, slurry 60° C. overnight, stir RT 1 day",MRZ
same,XRPD Results,"[3]; coformer L-Serine (1:1), H2O/THF, stir RT 3 days, SE, RT",MRZ
same,XRPD Results,"[3]; coformer L-Serine (1:3), H2O/MeOAc, slurry 60° C. O/N, stir RT 1 day, FE, RT",MRZ
same,XRPD Results,"[3]; coformer L-alanine (1:1), MeOH, slurry 60° C. O/N, slurry RT 1 day",MRZ
same,XRPD Results,"[3]; coformer L-arginine (1:1), HFIPA/dioxane, stir, RT, ~25 minutes",MRZ
same,XRPD Results,"[3]; coformer L-ascorbic acid (1:1), IPA/MeOH at 50° C., FC to RT",MRZ
same,XRPD Results,"[3]; coformer L-cysteine (1:1), grind ~10 minutes, EtOH/dioxane (50/50), temperature cycle RT and 50° C.",MRZ
same,XRPD Results,"[3]; coformer L-lysine (1:1), HFIPA/THF, stir, RT, ~35 minutes",MRZ
same,XRPD Results,"[3]; coformer L-proline (sat'd in IPA at 50° C.), added to MRZ at 50° C., temp cycle (50° C.-RT)",MRZ
same,XRPD Results,"[3]; coformer L-proline sat'd in H2O/MeOH 50/50 v/v, slurry 50° C. 2 days, slurry RT 3 days",L-proline
same,XRPD Results,"[3]; coformer Maleic acid (1:1), nitromethane, SC, 50° C. to RT",MRZ
same,XRPD Results,"[3]; coformer Maleic acid (1:3), 1-PrOH, slurry, RT, 6 days",MRZ
same,XRPD Results,"[3]; coformer Nicotinamide (1:1), ACN, FC, 70° C. to RT",MRZ
same,XRPD Results,"[3]; coformer Orotic acid (2:1), nitromethane, slurry, 50° C., 6 days",MRZ
same,XRPD Results,"[3]; coformer Oxalic acid (1:2), EtOH/MEK, stir, RT, 7 days",MRZ
same,XRPD Results,"[3]; coformer Saccharin (1:1), IPA, FC, 70° C. to RT",MRZ
same,XRPD Results,"[3]; coformer Salicylic acid (1:1), EtOAc:toluene (50:50), FC, 75° C. to RT",MRZ
same,XRPD Results,"[3]; coformer Salicylic acid (1:3), EtOH/MIBK, stir, RT",MRZ
same,XRPD Results,"[3]; coformer Succinic acid (1:2), MeOH/acetone, stir, RT, 5 days",MRZ
same,XRPD Results,"[3]; coformer Thymine (1:1), MeOH/EtOAc, slurry 50° C. 2 days, slurry RT 6 days",Thymine
same,XRPD Results,"[3]; coformer Urea (2:1), EtOAc, FC, 50° C. to RT",MRZ
